Target: His-mASPDH (mouse ASPDH) (Mus musculus, UniProt Q9DCQ2)
Assay: ITC, one-site model
Format: binding

Chain of His-mASPDH (mouse ASPDH) (Q9DCQ2 whole entry): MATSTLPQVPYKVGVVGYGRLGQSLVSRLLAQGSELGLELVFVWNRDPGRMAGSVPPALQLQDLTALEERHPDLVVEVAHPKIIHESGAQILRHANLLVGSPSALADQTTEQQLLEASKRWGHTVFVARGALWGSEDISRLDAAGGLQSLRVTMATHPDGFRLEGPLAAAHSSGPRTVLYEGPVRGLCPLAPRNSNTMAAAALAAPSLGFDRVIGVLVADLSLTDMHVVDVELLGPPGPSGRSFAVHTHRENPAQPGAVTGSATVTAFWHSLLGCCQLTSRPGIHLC

Row | Kd | Structure (SMILES)
1 | 958 ± 203 nM | NC(=O)c1ccc[n+]([C@@H]2O[C@H](COP(=O)(O)OP(=O)(O)OC[C@H]3O[C@@H](n4cnc5c(N)ncnc54)[C@H](OP(=O)(O)O)[C@@H]3O)[C@@H](O)[C@H]2O)c1 [NADP]
2 | 455 ± 231 nM | Nc1ncnc2c1ncn2[C@@H]1O[C@H](COP(=O)(O)OP(=O)(O)OC[C@H]2O[C@@H]([n+]3cccc(C(=O)O)c3)[C@H](O)[C@@H]2O)[C@@H](O)[C@H]1OP(=O)(O)O [NAADP]

Reference: publication doi:10.1101/2022.06.06.494947v1 (biorxiv, 2022)
